In patent US20100267561A1, “HERBICIDAL PYRIDAZINONE DERIVATIVES” (priority 2007, published 2010):

Tests used:
Assay in all cases: Test B pre-/postemergence plant response
Format in all cases: in vivo
corn (Zea mays) = test system: corn (Zea mays)
Text: (§1) Seeds of plant species selected from blackgrass (Alopecurus myosuroides), downy bromegrass (Bromus tectorum), green foxtail (Setaria viridis), Italian ryegrass (Lolium multiflorum), wheat (Triticum aestivum), wild oat (Avena fatua), catchweed bedstraw (Galium aparine), bermudagrass (Cynodon dactylon), surinam grass (Brachiaria decumbens), cocklebur (Xanthium strumarium), corn (Zea mays), large crabgrass (Digitaria sanguinalis), woolly cupgrass (Eriochloa villosa), giant foxtail (Setaria faberii), goosegrass (Eleusine indica), johnsongrass (Sorghum halepense), kochia (Kochia scoparia), lambsquarters (Chenopodium album), morningglory (Ipomoea coccinea), eastern black (E.B.) nightshade (Solanum ptycanthum), yellow nutsedge (Cyperus esculentus), pigweed (Amaranthus retroflexus), common ragweed (Ambrosia elation), Russian thistle (Salsola iberica), soybean (Glycine max), common (oilseed) sunflower (Helianthus annuus), and velvetleaf (Abutilon theophrasti) were planted and treated preemergence with test chemicals formulated in a non-phytotoxic solvent mixture which included a surfactant.
(§2) At the same time, plants selected from these crop and weed species and also winter barley (Hordeum vulgare), canarygrass (Phalaris minor), chickweed (Stellaria media) and windgrass (Apera spica-venti) were treated with postemergence applications of some of the test chemicals formulated in the same manner. Plants ranged in height from 2 to 18 cm (1- to 4-leaf stage) for postemergence treatments.
(§3) Plant species in the flooded paddy test consisted of rice (Oryza sativa), umbrella sedge (Cyperus difformis), ducksalad (Heteranthera limosa) and barnyardgrass (Echinochloa crus-galli) grown to the 2-leaf stage for testing. At time of treatment, test pots were flooded to 3 cm above the soil surface, treated by application of test compounds directly to the paddy water, and then maintained at that water depth for the duration of the test. Treated plants and controls were maintained in a greenhouse for 13 to 15 days, after which time all species were compared to controls and visually evaluated. Plant response ratings, summarized in Table B, are based on a scale of 0 to 100 where 0 is no effect and 100 is complete control. A dash (-) response means no test result.

[1] = test system: morningglory (Ipomoea coccinea)
Text: as §1, §2, §3

[2] = test system: eastern black (E.B.) nightshade (Solanum ptycanthum); conditions: Preemergence
Text: as §1, §2, §3

[3] = test system: Italian ryegrass (Lolium multiflorum)
Text: as §1, §2, §3

[4] = test system: surinam grass (Brachiaria decumbens)
Text: as §1, §2, §3

[5] = test system: downy bromegrass (Bromus tectorum)
Text: as §1, §2, §3

[6] = test system: bermudagrass (Cynodon dactylon)
Text: as §1, §2, §3

[7] = test system: pigweed (Amaranthus retroflexus)
Text: as §1, §2, §3

[8] = test system: velvetleaf (Abutilon theophrasti)
Text: as §1, §2, §3

soybean (Glycine max) = test system: soybean (Glycine max)
Text: as §1, §2, §3

[9] = test system: woolly cupgrass (Eriochloa villosa)
Text: as §1, §2, §3

[10] = test system: green foxtail (Setaria viridis)
Text: as §1, §2, §3

kochia (Kochia scoparia) = test system: kochia (Kochia scoparia)
Text: as §1, §2, §3

[11] = Postemergence, 31 g ai/ha, scale 0 to 100, 0 no effect, 100 complete control
[12] = Postemergence, 62 g ai/ha, scale 0 to 100
[13] = Postemergence, 125 g ai/ha, scale 0 to 100
[14] = Postemergence, 250 g ai/ha, scale 0 to 100
[15] = Preemergence, 31 g ai/ha, 0 to 100 scale, 0 no effect, 100 complete control
[16] = Preemergence, 62 g ai/ha, scale 0 to 100
[17] = Preemergence, 125 g ai/ha, scale 0 to 100
[18] = Preemergence, 250 g ai/ha, scale 0 to 100

SMILES: Cc1cc(-c2ccc(Br)cc2)nn1-c1c(OC(=O)OC(C)C)cnn(C)c1=O [Compound 6]
- Plant response rating, Corn (corn (Zea mays); [11]): 95
- Plant response rating, Corn (corn (Zea mays); [12]): 95
- Plant response rating, Corn (corn (Zea mays); [13]): 100
- Plant response rating, Corn (corn (Zea mays); [14]): 100
- Plant response rating, Corn (corn (Zea mays); [15]): 95
- Plant response rating, Corn (corn (Zea mays); [16]): 98
- Plant response rating, Corn (corn (Zea mays); [17]): 98
- Plant response rating, Corn (corn (Zea mays); [18]): 100
- Plant response rating, Morningglory [1, 11]: 0
- Plant response rating, Morningglory [1, 12]: 0
- Plant response rating, Morningglory [1, 13]: 0
- Plant response rating, Morningglory [1, 14]: 50
- Plant response rating, Morningglory [1, 15]: 0
- Plant response rating, Morningglory [1, 16]: 0
- Plant response rating, Morningglory [1, 17]: 0
- Plant response rating, Morningglory [1, 18]: 0
- Plant response rating, Nightshade, E. B. ([2]; 31 g ai/ha, 0 to 100 scale, 0 no effect, 100 complete control): 0
- Plant response rating, Nightshade, E. B. ([2]; 125 g ai/ha, scale 0 to 100): 90
- Plant response rating, Nightshade, E. B. ([2]; 250 g ai/ha, scale 0 to 100): 90
- Plant response rating, Ryegrass, Italian [3, 11]: 100
- Plant response rating, Ryegrass, Italian [3, 12]: 100
- Plant response rating, Ryegrass, Italian [3, 13]: 100
- Plant response rating, Ryegrass, Italian [3, 14]: 100
- Plant response rating, Ryegrass, Italian [3, 15]: 90
- Plant response rating, Ryegrass, Italian [3, 16]: 100
- Plant response rating, Ryegrass, Italian [3, 17]: 100
- Plant response rating, Ryegrass, Italian [3, 18]: 100
- Plant response rating, Surinam Grass [4, 11]: 100
- Plant response rating, Surinam Grass [4, 12]: 100
- Plant response rating, Surinam Grass [4, 13]: 100
- Plant response rating, Surinam Grass [4, 14]: 100
- Plant response rating, Surinam Grass [4, 15]: 98
- Plant response rating, Surinam Grass [4, 16]: 98
- Plant response rating, Surinam Grass [4, 17]: 100
- Plant response rating, Surinam Grass [4, 18]: 100
- Plant response rating, Bromegrass, Downy [5, 11]: 5
- Plant response rating, Bromegrass, Downy [5, 12]: 5
- Plant response rating, Bromegrass, Downy [5, 13]: 5
- Plant response rating, Bromegrass, Downy [5, 14]: 10
- Plant response rating, Bromegrass, Downy [5, 15]: 50
- Plant response rating, Bromegrass, Downy [5, 16]: 65
- Plant response rating, Bromegrass, Downy [5, 17]: 65
- Plant response rating, Bromegrass, Downy ([5]; Preemergence, 250 g ai/ha, scale 0 to 100 (0 no effect, 100 complete control)): 95
- Bermudagrass plant response rating ([6]; 250 g ai/ha, preemergence, 0-100 scale): 100
- Plant response rating, Bermudagrass [6, 11]: 100
- Plant response rating, Bermudagrass [6, 12]: 100
- Plant response rating, Bermudagrass [6, 13]: 100
- Plant response rating, Bermudagrass [6, 14]: 100
- Plant response rating, Bermudagrass [6, 15]: 100
- Plant response rating, Bermudagrass [6, 16]: 100
- Plant response rating, Bermudagrass [6, 17]: 100
- Plant response rating, Pigweed [7, 11]: 0
- Plant response rating, Pigweed [7, 12]: 0
- Plant response rating, Pigweed [7, 13]: 0
- Plant response rating, Pigweed [7, 14]: 40
- Plant response rating, Pigweed [7, 16]: 0
- Plant response rating, Pigweed [7, 17]: 30
- Plant response rating, Pigweed [7, 18]: 60
- Plant response rating, Velvetleaf [8, 11]: 0
- Plant response rating, Velvetleaf [8, 12]: 0
- Plant response rating, Velvetleaf [8, 13]: 0
- Plant response rating, Velvetleaf [8, 14]: 10
- Plant response rating, Velvetleaf [8, 15]: 0
- Plant response rating, Velvetleaf [8, 16]: 0
- Plant response rating, Velvetleaf [8, 17]: 0
- Plant response rating, Velvetleaf [8, 18]: 40
- Plant response rating, Soybean (soybean (Glycine max); [11]): 0
- Plant response rating, Soybean (soybean (Glycine max); [12]): 60
- Plant response rating, Soybean (soybean (Glycine max); [13]): 75
- Plant response rating, Soybean (soybean (Glycine max); [14]): 90
- Plant response rating, Soybean (soybean (Glycine max); [15]): 0
- Plant response rating, Soybean (soybean (Glycine max); [16]): 0
- Plant response rating, Soybean (soybean (Glycine max); [17]): 40
- Plant response rating, Soybean (soybean (Glycine max); [18]): 70
- Plant response rating, Cupgrass, Woolly [9, 11]: 100
- Plant response rating, Cupgrass, Woolly [9, 12]: 100
- Plant response rating, Cupgrass, Woolly [9, 13]: 100
- Plant response rating, Cupgrass, Woolly [9, 14]: 100
- Plant response rating, Cupgrass, Woolly [9, 15]: 85
- Plant response rating, Cupgrass, Woolly [9, 16]: 85
- Plant response rating, Cupgrass, Woolly [9, 17]: 85
- Plant response rating, Cupgrass, Woolly [9, 18]: 85
- Plant response rating, Foxtail, Green [10, 11]: 100
- Plant response rating, Foxtail, Green [10, 12]: 100
- Plant response rating, Foxtail, Green [10, 13]: 100
- Plant response rating, Foxtail, Green [10, 14]: 100
- Plant response rating, Foxtail, Green [10, 15]: 100
- Plant response rating, Foxtail, Green [10, 16]: 100
- Plant response rating, Foxtail, Green [10, 17]: 100
- Plant response rating, Foxtail, Green [10, 18]: 100
- Plant response rating, Kochia (kochia (Kochia scoparia); [11]): 0
- Plant response rating, Kochia (kochia (Kochia scoparia); [12]): 0
- Plant response rating, Kochia (kochia (Kochia scoparia); [13]): 20
- Plant response rating, Kochia (kochia (Kochia scoparia); [14]): 20
- Plant response rating, Kochia (kochia (Kochia scoparia); [15]): 0
- Plant response rating, Kochia (kochia (Kochia scoparia); [16]): 0
- Plant response rating, Kochia (kochia (Kochia scoparia); [17]): 20
- Plant response rating, Kochia (kochia (Kochia scoparia); [18]): 60
